Data from PMC6525029 (ACS synthetic biology, 2019).

Experiments:
αvβ3 integrin = αvβ3 integrin (Homo sapiens, UniProt P05106+P06756); test: Fluorescence polarization; format: binding
αvβ3 integrin, P06756 = target: T1, αvβ3 integrin, P06756; test: fluorescence polarisation
T1 chain 1: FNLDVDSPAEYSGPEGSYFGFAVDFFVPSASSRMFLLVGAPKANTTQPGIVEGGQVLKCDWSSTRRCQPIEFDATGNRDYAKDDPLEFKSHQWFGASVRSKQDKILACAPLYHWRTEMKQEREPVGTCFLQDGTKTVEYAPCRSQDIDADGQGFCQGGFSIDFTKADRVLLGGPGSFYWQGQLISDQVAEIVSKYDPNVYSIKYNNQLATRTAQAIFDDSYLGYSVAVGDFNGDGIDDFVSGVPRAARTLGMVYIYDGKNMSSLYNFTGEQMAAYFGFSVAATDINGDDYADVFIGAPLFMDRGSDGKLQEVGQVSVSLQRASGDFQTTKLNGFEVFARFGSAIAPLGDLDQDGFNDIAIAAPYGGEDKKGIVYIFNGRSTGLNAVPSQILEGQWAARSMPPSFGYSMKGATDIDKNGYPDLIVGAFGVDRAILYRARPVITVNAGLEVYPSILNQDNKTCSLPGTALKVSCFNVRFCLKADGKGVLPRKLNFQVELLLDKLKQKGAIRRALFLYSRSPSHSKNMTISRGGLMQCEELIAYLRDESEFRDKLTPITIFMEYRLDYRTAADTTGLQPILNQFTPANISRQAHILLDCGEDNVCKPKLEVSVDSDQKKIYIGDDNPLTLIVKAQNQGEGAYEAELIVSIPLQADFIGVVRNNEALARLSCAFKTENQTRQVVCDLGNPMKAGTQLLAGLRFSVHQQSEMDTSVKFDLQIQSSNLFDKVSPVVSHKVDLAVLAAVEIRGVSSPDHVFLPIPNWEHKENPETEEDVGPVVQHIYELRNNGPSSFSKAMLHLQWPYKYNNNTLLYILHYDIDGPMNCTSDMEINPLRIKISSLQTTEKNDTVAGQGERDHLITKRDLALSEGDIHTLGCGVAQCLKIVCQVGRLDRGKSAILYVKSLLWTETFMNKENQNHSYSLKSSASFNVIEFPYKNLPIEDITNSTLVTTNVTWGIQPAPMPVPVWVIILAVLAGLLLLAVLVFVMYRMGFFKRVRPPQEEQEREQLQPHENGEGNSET
T1 chain 2: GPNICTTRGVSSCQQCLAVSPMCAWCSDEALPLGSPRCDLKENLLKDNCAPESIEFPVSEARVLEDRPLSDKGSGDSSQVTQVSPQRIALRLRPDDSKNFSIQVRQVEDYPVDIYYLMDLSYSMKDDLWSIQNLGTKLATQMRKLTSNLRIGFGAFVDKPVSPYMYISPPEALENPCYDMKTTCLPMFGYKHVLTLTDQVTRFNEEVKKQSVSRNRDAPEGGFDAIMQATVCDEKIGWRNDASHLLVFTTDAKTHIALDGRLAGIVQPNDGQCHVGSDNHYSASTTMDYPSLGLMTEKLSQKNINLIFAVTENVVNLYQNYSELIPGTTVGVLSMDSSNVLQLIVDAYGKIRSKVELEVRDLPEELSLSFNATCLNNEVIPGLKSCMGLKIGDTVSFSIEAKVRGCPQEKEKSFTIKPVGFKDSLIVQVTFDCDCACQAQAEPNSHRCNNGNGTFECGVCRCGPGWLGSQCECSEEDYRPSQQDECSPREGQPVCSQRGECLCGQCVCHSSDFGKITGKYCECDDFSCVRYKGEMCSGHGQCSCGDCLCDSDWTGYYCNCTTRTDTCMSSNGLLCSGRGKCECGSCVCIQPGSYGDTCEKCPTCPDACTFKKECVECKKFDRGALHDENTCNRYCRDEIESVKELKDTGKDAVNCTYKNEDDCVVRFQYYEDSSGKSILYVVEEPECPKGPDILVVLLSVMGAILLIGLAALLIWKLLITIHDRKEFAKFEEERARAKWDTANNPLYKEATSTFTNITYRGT

With CSCC[C@H](NC(=O)[C@H]1CSC[C@H](NC(=O)[C@H](C)NC(=O)[C@H](C)N)C(=O)N[C@@H](Cc2c[nH]cn2)C(=O)N[C@@H](CCCNC(=N)N)C(=O)NCC(=O)N[C@@H](CC(=O)O)C(=O)N2CCC[C@H]2C(=O)N1)C(=O)N1CCC[C@H]1C(=O)N1CCC[C@H]1C(=O)N[C@@H]1CSC[C@@H](C(=O)O)NC(=O)[C@H](CCC(=O)O)NC(=O)CNC(=O)[C@H](CCC(=O)O)NC(=O)[C@H](Cc2c[nH]c3ccccc23)NC(=O)[C@H](Cc2ccc(O)cc2)NC1=O [Pcn2.8(5RGD)] the Ki (αvβ3 integrin) was > 2000 nM and the “binding to the αvβ3 integrin (in words)” value (αvβ3 integrin; FP competition experiment, Figure 5 legend) was “poor binding”.

In the case of CHNHAPSMPPSYWRGDC (modifications not checked) [linear/unmodified Pcn2.8(16RGD) core peptide], the Ki (αvβ3 integrin, P06756) is reported as 18 nM.
